This assay deals with CDK4. As to the kind of experiment: Competition and pulldown of Compound 300/Compound 148 in CDK4-overexpressing MCF-7 lysate. The class given is binding, human. The following applies: varying Compound 148 prior to 500 μM Compound 300, CDK4 overexpression. As for the experimental part: MCF-7 cells were grown to 40% confluency in 3 mL DMEM media (Gibco) containing 10% (v/v) FBS in a 6-well chamber at 37° C., 5% CO2. Transfection was then performed as per Lipofectamine 2000 protocol (Invitrogen). Briefly, 0 or 2.5 μg of pcDNA3.1(+)-FLAG-TEV-CDK4 expression construct was introduced at 0:0, 2:1 and 3:1 transfection reagent:DNA. The lipid-DNA complex was incubated for 30 mins at 23° C. in Opti-MEM media (Gibco). Then, 250 μL complex was added to 2.75 mL DMEM containing no FBS. 3 mL DMEM+DNA was added to each well, while control wells received DMEM only. Cells were incubated for 6H at 37° C., 5% CO2. The media was then aspirated, and cells were given 3 mL DMEM+10% FBS and left to incubate for an additional 30H at 37° C., 5% CO2. Cells were washed 3× in 500 μL ice-cold PBS then harvested by scraping in 200 μL ice-cold PBS+1% Triton X-100 containing EDTA-free protease inhibitors (Roche). Cells were lysed at 4° C. for 30 mins while rocking. Lysate was clarified by centrifugation at 10,000×g at 4° C. for 15 mins. The supernatant was then transferred to a fresh prechilled 1.5 mL microcentrifuge tube. Protein concentration was normalized to 2.0 mg/mL via BCA assay (Pierce; cat no. 23225). […] CDK4 expression was quantified by densitometry (ImageJ) and normalized to the actin loading control. […]

Here are results for one compound from patent publication US20250206708A1, “AN OXAZIRIDINE PLATFORM FOR TARGETING FUNCTIONAL ALLOSTERIC METHIONINE SITES” (Novartis AG, priority 2022, published 2025).

In the case of `O=C(N1CC2COCC2C1)N1OC1c1ccccc1` (stereo not shown) [Compound 148], the “CDK4 signal in eluted proteins after pulldown (competition with Compound 300)” value is recorded as “dose-dependent decrease in signal in eluted proteins”.
